We go through four compounds from US11773076B2, “Crystalline forms of a somatostatin modulator” (Crinetics Pharmaceuticals, Inc., priority 2021, dated 2023).

pEC50: −log10 of the molar value. Entries after “also recorded” stand apart in the source; their conditions may differ.

In one data set the target is SSTR2 (Homo sapiens, UniProt P30874). As to the kind of experiment: Selectivity for SSTR5 over SSTR2. Format: cell-based.
The target of a further data set is SSTR5 (Homo sapiens, UniProt P35346). As to the kind of experiment: SSTR5 agonist potency. Type of data set: cell-based.
Data set [1] in a line: Thermal stability of crystalline Pattern A (DSC cycling, then XRPD). Type of data set: physicochemical. How it is done: Two samples of Crystalline Pattern A were prepared and cycled in the DSC and then analyzed by XRPD.
The first sample of Pattern A (9.4 mg) was heated from 30° C. to 150° C. and then cooled back to 30° C.
The second sample of Pattern A (14.4 mg) was heated from 30° C. to 118° C. and then cooled back to 30° C. The sample recovered after the DSC experiment appeared as a light-amber pellet that was easily pressed into a powder on the XRPD plate.

A short description of data set [2]: Dry and solvent drop milling, XRPD after milling. Format: physicochemical. How it is done:
Dry and solvent drop milling was done using a small Wig-L-Bug ball mill with ¼″ stainless steel ball as milling media. About 25 mg of crystalline Pattern A of Compound 1 was weighed into a milling capsule and one volume of solvent (solvent drop) was added. The milling was carried out at 3,800 rpm in three steps of 30 s each. The solids were recovered after milling and analyzed by XRPD.

Data set [3] is described as follows: Thermodynamic stability: one-week slurry stability of crystalline Pattern A (XRPD). Type of data set: physicochemical. How it is done: One-week slurry stability studies were performed on crystalline Pattern A in five solvents and solvent systems at room temperature (20-24° C.) and at 10° C. About 25 mg of Compound 1 was weighed into 2 mL vials and the solvent was added to each vial at room temperature with stirring. The solvents and solvent systems used in the experiments were: IPA:water (1:1 vol), THF:heptane (1:2 vol), ACN:heptane (1:2 vol), MIBK:heptane (1:2 vol), and IPAc.
For the IPA:water (1:1 vol) samples, 10 vol. of IPA:water (1:1 vol) was added, whereas 7 vol. were initially added for the other solvent systems. One set of vials was left to stir at room temperature and the other set was transferred to a cold stir plate at 10° C. After 5 days, samples that remained in solutions were seeded with Pattern A (0.5-1 mg) and left to stir for one week.

Data set [4] can be described thus: Stability of solid state forms on humidity exposure (static storage, XRPD re-analysis). Particulars: 40° C./75% RH for 7 days. Format: physicochemical. How it is done: Samples were assessed for stability under static storage conditions of 40° C./75% RH for 7 days. The samples were then re-analyzed by XRPD.
The nature of data set [5]: Dynamic Vapor Sorption (DVS). Type of data set: physicochemical. How it is done: Dynamic Vapor Sorption (DVS) was performed using a DVS Intrinsic 1. The sample (10-15 mg) was loaded into a sample pan, suspended from a microbalance and exposed to a humidified stream of nitrogen gas. The sample was held for a minimum of 5 min at each level and only progressed to the next humidity level if there was <0.002% change in weight between measurements (interval: 60 seconds) or 240 min had elapsed. The following program was used: • (1) Equilibration at 50% RH • (2) 50% to 2% (50%, 40%, 30%, 20%, 10% and 2%) • (3) 2% to 95% (2%, 10%, 20%, 30%, 40%, 50%, 60%, 70%, 80%, 90%, 95%) • (4) 95% to 2% (95%, 80%, 70%, 60%, 50%, 40%, 30%, 20%, 10%, 2%) • (5) 2% to 50% (2%, 10%, 20%, 30%, 40%, 50%)

The nature of data set [6]: Stability of crystalline patterns on drying (XRPD). Format: physicochemical. Conditions: for XRPD after drying on the benchtop: 2 days. As for the experimental part:
Samples of amorphous Compound 1 (either 30 mg/mL or 60 mg/mL) were dissolved in DCM and were allowed to evaporate either at room temperature or 45° C. After stirring for about 40 min, the resulting slurries were filtered and analyzed by XRPD. Pattern B was obtained for the wet cakes of recovered solids. Pattern B changed to C after drying under static vacuum at 50° C. overnight.
In a separate experiment, about 71 mg of amorphous Compound 1 was weighed into a 4 mL vial and 10 vol. (710 μL) of DCM was added at room temperature. After stirring for 5 min, a thin slurry formed. XRPD analysis of a sample taken from the slurry after 1 h confirmed Pattern B. The vial was then transferred to a fridge at 5° C. for ˜3 h and then to a freezer at −20° C. overnight. Small amount of solid settled to the bottom of the vial after cooling at −20° C., the yield was very low, about 6% w/w. XRPD confirmed Pattern B. Pattern B was left to dry on the benchtop at room temperature for 2 days. XRPD analysis on the sample after 2 days confirmed that Pattern B was stable. Thermal analysis on a small sample (0.7 mg) of Pattern B was performed by DSC.
A sample of 48.9 mg of amorphous Compound 1 and 3 vol. (˜150 μL) of MIBK:heptane was prepared at 45° C. A small amount of gummy solid formed after addition of the solvent system. The vial was vortexed and sonicated few times to break the gum and a thin slurry was obtained after 5 min of stirring. The sample was left to stir at 45° C. for about 5 h and then transferred to a stir plate at room temperature. After stirring overnight at room temperature, the sample was filtered and the solid was collected for XRPD analysis. The yield was low, ˜7% w/w.
Thermal analysis on a small sample of Pattern D was performed by DSC.

In general, pEC50 refers to the negative decadic logarithm of the EC50, by convention in mol/L. The low end stands for a large EC50, the high end for a small EC50.

SSTR2, sequence (P30874 whole entry): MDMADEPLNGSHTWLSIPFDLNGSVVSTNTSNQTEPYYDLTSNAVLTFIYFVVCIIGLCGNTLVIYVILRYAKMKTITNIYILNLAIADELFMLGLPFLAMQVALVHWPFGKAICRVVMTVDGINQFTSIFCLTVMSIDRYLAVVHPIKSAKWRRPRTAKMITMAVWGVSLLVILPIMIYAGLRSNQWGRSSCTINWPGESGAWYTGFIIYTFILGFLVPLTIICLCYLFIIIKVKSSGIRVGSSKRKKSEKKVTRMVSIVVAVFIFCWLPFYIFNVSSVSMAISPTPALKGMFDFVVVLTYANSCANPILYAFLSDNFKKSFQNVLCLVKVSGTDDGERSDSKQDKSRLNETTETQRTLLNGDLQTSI
SSTR5, sequence (P35346 whole entry): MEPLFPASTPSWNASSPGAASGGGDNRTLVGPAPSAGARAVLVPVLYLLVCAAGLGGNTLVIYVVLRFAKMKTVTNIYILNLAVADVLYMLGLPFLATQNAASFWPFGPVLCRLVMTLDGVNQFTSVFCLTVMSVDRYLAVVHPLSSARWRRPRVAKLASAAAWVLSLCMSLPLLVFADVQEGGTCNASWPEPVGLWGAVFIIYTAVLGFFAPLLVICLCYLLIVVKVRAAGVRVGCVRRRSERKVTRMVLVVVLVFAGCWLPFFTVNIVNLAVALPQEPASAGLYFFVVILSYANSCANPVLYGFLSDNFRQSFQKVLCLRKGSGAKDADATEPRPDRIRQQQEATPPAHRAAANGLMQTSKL

Consider `C[C@H](NC(=O)c1cnc(C#N)c(-c2cc(F)cc(F)c2)c1N1CC[C@H](N)C1)C(F)(F)F` [Compound 1, 4-[(3S)-3-aminopyrrolidin-1-yl]-6-cyano-5-(3,5-difluorophenyl)-N-[(2S)-1,1,1-trifluoropropan-2-yl]pyridine-3-carboxamide], for which, on SSTR2, the “selectivity for SSTR5 over SSTR2” value is recorded as more than 500 fold. This compound gave a pEC50 at SSTR5 of more than 9.00.

Take `C[C@H](NC(=O)c1cnc(C#N)c(-c2cc(F)cc(F)c2)c1N1CC[C@H](N)C1)C(F)(F)F` [Pattern A, 4-[(3S)-3-aminopyrrolidin-1-yl]-6-cyano-5-(3,5-difluorophenyl)-N-[(2S)-1,1,1-trifluoropropan-2-yl]pyridine-3-carboxamide]: the “XRPD after DSC thermal cycling” value in data set [1] (heated from 30° C. to 118° C. and cooled back to 30° C.) was “stable after the DSC treatment”; in data set [1] (heated from 30° C. to 150° C. and cooled back to 30° C.), “amorphous pattern”. Moreover, the “crystallinity (XRPD) after dry milling” value in data set [2] (dry milling, 3,800 rpm, three steps of 30 s) is “lost after dry milling resulting in amorphous material”. Also, the “crystallinity (XRPD) after solvent milling” value in data set [2] (solvent drop milling in IPAc, water, and MIBK) is recorded as “remained stable”. Also, the “XRPD pattern after one-week slurry” value in data set [3] (MIBK:heptane (1:2 vol) at 10° C.) is listed as “Pattern B”; in data set [3] (MIBK:heptane (1:2 vol) at room temperature), “Pattern A+trace of a new pattern, Pattern D”; in data set [3] (remaining six analysable samples: IPA:water (1:1), THF:heptane (1:2), IPAc, room temperature and 10° C.), “Pattern A”. Besides, in data set [4], the “XRPD after static storage” value was “no change in the XRPD”. Further, the “total mass change between 2 and 95% RH” value in data set [5] (DVS, 2 to 95% RH) was 0.7%. Besides, the “mass gain from 20 to 75% RH” value in data set [5] (DVS, 20 to 75% RH) stood at 0.37%. Moreover, the “mass loss from 50 to 2% RH” value in data set [5] (DVS, 50 to 2% RH) stood at 0.2%. Moreover, in data set [5] (sample measured by DVS, 2-95% RH), the “XRPD pattern after DVS analysis” value is recorded as “unchanged after DVS analysis”.

As for `C[C@H](NC(=O)c1cnc(C#N)c(-c2cc(F)cc(F)c2)c1N1CC[C@H](N)C1)C(F)(F)F` [Pattern B, 4-[(3S)-3-aminopyrrolidin-1-yl]-6-cyano-5-(3,5-difluorophenyl)-N-[(2S)-1,1,1-trifluoropropan-2-yl]pyridine-3-carboxamide], the “XRPD after drying on the benchtop” value in data set [6] (room temperature) is reported as “stable”. Also, the “XRPD after drying under vacuum at 50° C.” value in data set [6] (vacuum, 50° C.) is given as “changed to C; also recorded: converted to Pattern C”.

With `C[C@H](NC(=O)c1cnc(C#N)c(-c2cc(F)cc(F)c2)c1N1CC[C@H](N)C1)C(F)(F)F` [Pattern D, 4-[(3S)-3-aminopyrrolidin-1-yl]-6-cyano-5-(3,5-difluorophenyl)-N-[(2S)-1,1,1-trifluoropropan-2-yl]pyridine-3-carboxamide], the “XRPD after drying under active vacuum at room temperature” value in data set [6] (overnight, active vacuum, room temperature) is “converted to C”. In addition, in data set [6] (room temperature), the “XRPD after drying on the benchtop” value was “remained stable”.
